The text below walks through data of PubChem BioAssay AID652076 (The Scripps Research Institute Molecular Screening Center, 2013).

Active and inactive are the calls of the source. No rule for the calls is given here.

The target of the data set is Cytochrome P450 1A2 (Homo sapiens) (UniProt P05177). The experiment in a line: CYP1A2 enzyme inhibition, late-stage follow-up, biochemical (AID 652076). To be noted: Human CYP inhibition panel, LC-MS/MS marker substrate metabolism.
Cytochrome P450 1A2 (Homo sapiens), sequence (P05177 whole entry, looked up): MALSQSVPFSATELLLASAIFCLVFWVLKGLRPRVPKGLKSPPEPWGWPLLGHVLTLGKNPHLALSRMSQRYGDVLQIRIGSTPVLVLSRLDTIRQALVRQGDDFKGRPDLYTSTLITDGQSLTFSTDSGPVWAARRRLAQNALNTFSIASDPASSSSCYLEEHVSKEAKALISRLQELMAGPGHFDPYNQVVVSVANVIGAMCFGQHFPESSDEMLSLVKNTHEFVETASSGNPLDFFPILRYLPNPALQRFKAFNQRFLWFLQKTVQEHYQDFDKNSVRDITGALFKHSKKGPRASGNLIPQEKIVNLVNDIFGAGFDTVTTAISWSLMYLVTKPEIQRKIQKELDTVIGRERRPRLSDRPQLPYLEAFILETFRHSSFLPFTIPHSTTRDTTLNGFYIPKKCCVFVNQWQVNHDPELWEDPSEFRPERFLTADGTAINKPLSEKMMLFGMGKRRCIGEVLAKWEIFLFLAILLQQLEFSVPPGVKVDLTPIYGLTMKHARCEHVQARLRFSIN

`COC(=O)c1cc(Br)cnc1N1CCC(NC2CCCCC2)C(O)C1` (configuration not stated): the outcome was active. Under “CYP1A2, at 10 µM, hits give high values”, the inhibition is -9%.
